Patent US20170290891A1, “METHOD OF BONE REGENERATION OR BONE AUGMENTATION” (TOYOBO CO., LTD., priority 2016, published 2017)

Columns and labels:
[1] = system: standardized full-thickness bone defect of the calvarium; experiment: Test Example 1: rat calvarium bone defect, OCP or β-TCP collagen composite + teriparatide subcutaneous injection; format: in vivo, Male Wistar rats
Text: Male Wistar rats (12 weeks old) were each intraperitoneally anesthetized, and a skin incision and a periosteal incision were made in the calvarium part to expose the calvarium. A standardized full-thickness bone defect (diameter: about 9 mm), for which spontaneous recovery could not be expected, was created. Then, one OCP/collagen composite disc produced in Production Example 2 or one β-TCP/collagen composite disc produced in Production Example 3 was implanted therein. As the control, rats in which only a bone defect was created, and no sample was implanted (untreated group) were prepared. After the sample was implanted, the periosteum and skin were sutured, and the surgery was completed. […] In the rats of the teriparatide subcutaneous injection group, 10 μg/kg of the teriparatide prepared in Production Example 5 was subcutaneously injected immediately after surgery and every day thereafter. Subcutaneous injection was performed in such a manner that the thawed teriparatide solution was sucked by a 1-mL syringe (27 G injection needle), the back skin was sterilized with a dilute Hibitane solution, and then a considerable amount of teriparatide solution was injected subcutaneously in the back. The observation period after surgery was 8 weeks for each group, and 5 rats were used in each period. […] Similarly, after CT photography 8 weeks after surgery, the rats were euthanized under anesthesia with an excess amount of pentobarbital. […] Then, tissue sections (thickness: […]) cut in the frontal plane were prepared, and a histological search was performed by hematoxylin-eosin staining. Further, using the plural tissue sections corresponding to the center of the defect of each sample, the ratio of new bone (n-Bone %) in the created defect was examined by histological quantification. Variance analysis, etc., were conducted using the average value and standard deviation of n-Bone % in each group, and a significance test was conducted. The significance level was set at 5%.

local bone formation = details: subcutaneous administration of PTH; NPL 2; cited from earlier work

CC[C@H](C)[C@H](NC(=O)[C@H](CCC(=O)O)NC(=O)[C@H](CO)NC(=O)[C@@H](NC(=O)[C@@H](N)CO)C(C)C)C(=O)N[C@@H](CCC(N)=O)C(=O)N[C@@H](CC(C)C)C(=O)N[C@@H](CCSC)C(=O)N[C@@H](Cc1cnc[nH]1)C(=O)N[C@@H](CC(N)=O)C(=O)N[C@@H](CC(C)C)C(=O)NCC(=O)N[C@@H](CCCCN)C(=O)N[C@@H](Cc1cnc[nH]1)C(=O)N[C@@H](CC(C)C)C(=O)N[C@@H](CC(N)=O)C(=O)N[C@@H](CO)C(=O)N[C@@H](CCSC)C(=O)N[C@@H](CCC(=O)O)C(=O)N[C@@H](CCCN=C(N)N)C(=O)N[C@H](C(=O)N[C@@H](CCC(=O)O)C(=O)N[C@@H](Cc1c[nH]c2ccccc12)C(=O)N[C@@H](CC(C)C)C(=O)N[C@@H](CCCN=C(N)N)C(=O)N[C@@H](CCCCN)C(=O)N[C@@H](CCCCN)C(=O)N[C@@H](CC(C)C)C(=O)N[C@@H](CCC(N)=O)C(=O)N[C@@H](CC(=O)O)C(=O)N[C@H](C(=O)N[C@@H](Cc1cnc[nH]1)C(=O)N[C@@H](CC(N)=O)C(=O)N[C@@H](Cc1ccccc1)C(=O)O)C(C)C)C(C)C [teriparatide]
ratio of new bone (n-Bone %) in the defect ([1]; 8 weeks after surgery, PTH groups: teriparatide 10 μg/kg subcutaneously every day, FIG. 5): 31.1±10.2% | X-ray photographs of the bone defect sites, living state (radiopaque image) ([1]; FIG. 1, PTH groups: teriparatide 10 μg/kg s.c. daily): radiopaque images in the defects were equally scarce | X-ray photographs of the calvarium and the surrounding tissue (radiopaque image) ([1]; FIG. 2, PTH groups: teriparatide 10 μg/kg s.c. daily): their thickness was thinner than that of the existing bone | stained pathological specimens, low-magnification (×1.25) ([1]; FIG. 3, 8 weeks after surgery, hematoxylin-eosin): thin bone tissue extending from the defect margins | stained pathological specimens, high-magnification ([1]; FIG. 4, 8 weeks after surgery, hematoxylin-eosin): thin new bone extended from the defect margins | new bone formation (summary of FIGS. 1 to 5) ([1]; teriparatide 10 μg/kg s.c. daily, 8 weeks): new bone formation was not observed | local bone formation (local bone formation): significantly promoted
